Measurements as given in patent US20260263505A1, “Uses of Compositions Comprising a Prebiotic Component” (Mead Johnson Nutrition Company, priority 2021, published 2026).

Test system: male Sprague Dawley rats
Test: Telemetric sleep/wake recording at baseline and after inescapable tail shock stress, following early life diet (P21-P51)
Assay type: in vivo, rat
Conditions: mean ± SEM
Source text: The aim of this study was to investigate the extent to which early life dietary oligosaccharides and/or polydextrose (PDX+GOS) modulate sleep and protect sleep architecture following stress.
Timed-pregnant female Sprague Dawley rats were purchased from Charles River Laboratories International, Inc., (Hollister, CA and Canada). Male pups were weaned at postnatal day 21 (P21) and randomised into one of five treatment groups (see Table 6 below). All rats were housed in a temperature-controlled recording room under a 12 hour light: dark cycle with food and water available ad libitum. Environmental conditions were regulated, and room temperature (24±2° C.), humidity (50±20% relative humidity), and lighting were monitored and recorded. Animals were inspected daily.
All experimenters were blind to type of diet administered to each group. The diets were formulated by Mead Johnson Nutrition (MJN, Evansville IN) based on AlN-93G specifications to be isocaloric and have similar carbohydrate, protein, fat, vitamin and mineral levels. Experimental diets contained 7.0 g/kg galactooligosaccharides (GOS), 7.0 g/kg polydextrose (PDX) and/or 2.2 g/kg sialyllactose (SL). Diets were produced by Envigo (Indianapolis, IN), and ingredients were supplied by: PDX (Danisco, Terre Haute, IN), GOS (Friesland Campina, Zwolle, The Netherlands) and SL (SAL-10; Arla Foods Ingredients, Aarhus, Denmark).
A total of n=105 male Sprague Dawley rats were used in this study with a subset of animals (n=40) used for sleep/wake analysis. Upon weaning (P21), rats were randomised into one of five treatment groups, based upon diet and exposure to a stressor, as follows:
The experimental protocol consisted of two phases a diet manipulation phase and a sleep-stressor phase. During the diet manipulation phase, rat weanlings were randomised to either the control diet or one of the three formulated diets. Rats were provided these diets from age P21 to P51, after which all animals were given standard chow. During this diet-manipulation phase, body weights were recorded twice per week and food consumption determined for weekly intervals.
The second phase of the protocol consisted of telemetric recordings, exposure to stressor, and behavioural assessment. Telemeters were implanted on P64 and undisturbed baseline recordings obtained on P84.
Rats in groups 2 to 5 were exposed to inescapable shock stress (uncontrollable stress paradigm) on P85 using previously published protocols (Greenwood et al., Behav Brain Res. 2012 Aug. 1; 233(2): 314-321). Briefly, rats were restrained in Plexiglass tubes and received ~100, 5 s tail shocks (1.5 mA) on a […] variable-interval schedule. Stress protocols were conducted during the beginning of the light period. After the end of the stress protocol, rats were returned to their home cages. Home-cage control animals (no stress) remained undisturbed during this period.

[1] = Dark period (ZT13-24), Baseline
[2] = Dark period (ZT13-24), Post-stress
[3] = Light period (ZT5-12), Baseline
[4] = Light period (ZT5-12), Post-stress

Question: Which results are given for sialyllactose [SL]?
Answer: NREMS bout duration [1]: 1.3 ± 0.1 min; NREMS bouts [1]: 11.9 ± 1.1 number/h; NREMS duration [1]: 30.1 ± 3.0 % recording time; REMS bout duration [1]: 0.9 ± 0.1 min; REMS bouts [1]: 2.8 ± 0.4 number/h; REMS duration [1]: 6.0 ± 0.9 % recording time; Wake bout duration [1]: 10.9 ± 2.2 min; Wake bouts [1]: 8.3 ± 0.6 number/h; Wake duration [1]: 63.9 ± 3.8 % recording time; NREMS bout duration [2]: 1.5 ± 0.1 min; NREMS bouts [2]: 17.7 ± 1.3 number/h; NREMS duration [2]: [43.7 ± 1.7**] % recording time; REMS bout duration [2]: [1.3 ± 0.1*] min; REMS bouts [2]: [5.5 ± 0.5**] number/h; REMS duration [2]: [12.3 ± 1.0**] % recording time; Wake bout duration [2]: 4.1 ± 0.8 min; Wake bouts [2]: 10.4 ± 1.1 number/h; Wake duration [2]: [43.9 ± 2.4**] % recording time; NREMS bout duration [3]: 1.5 ± 0.1 min; NREMS bouts [3]: 20.1 ± 1.5 number/h; NREMS duration [3]: 51.0 ± 3.1 % recording time; REMS bout duration [3]: 1.2 ± 0.1 min; REMS bouts [3]: 5.3 ± 0.6 number/h; REMS duration [3]: 12.6 ± 1.3 % recording time; Wake bout duration [3]: 3.5 ± 1.1 min; Wake bouts [3]: 10.1 ± 0.6 number/h; Wake duration [3]: 36.4 ± 4.2 % recording time; NREMS bout duration [4]: 2.1 ± 0.1 min; NREMS bouts [4]: 16.8 ± 1.1 number/h; NREMS duration [4]: 56.1 ± 2.1 % recording time; REMS bout duration [4]: 1.6 ± 0.0 min; REMS bouts [4]: 5.3 ± 0.7 number/h; REMS duration [4]: 14.4 ± 1.7 % recording time; Wake bout duration [4]: 3.0 ± 0.7 min; Wake bouts [4]: 7.8 ± 0.6 number/h; Wake duration [4]: 29.5 ± 3.5 % recording time
